# Test results reported in the supplement of paper PMC10307832.
# Compound: CN(C)C(=N)NC(=N)N [Metformin]
# Assay: relative viability (nuclei count vs DMSO), 5 days (fraction); higher = more cells survive
# Settings: 1000 µM
# Outline: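 After an overnight hold at 37 °C, lung cancer cell lines in 1536-well plates were pinned with five library-drug doses (not always all listed), each √10 from the next, on vehicle-anchored plates. The cells stayed 5 days without fresh medium, then a one-step fix, permeabilisation and Hoechst stain preceded 4× imaging and MetaXpress nuclear counts. A plate passed only with control CV under 25% and at least one doubling. Viability is the median, over plates, of treated-well nuclei relative to vehicle-well nuclei.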
row,Cell Line,relative viability
1,ABC-1,0.448
2,BEN,1.47
3,CAL-12T,0.968
4,COR-L23,1
5,COR-L 105,0.964
6,Calu-6,0.964
7,ChaGo-K-1,0.987
8,EBC-1,1.04
9,EKVX,1.03
10,EMC-BAC-2,0.968
11,EPLC-272H,1.09
12,H3255,0.841
13,HARA,1.13
14,HCC-15,1.05
15,HCC-44,0.956
16,HCC-78,1.14
17,HCC-366,1.03

row,Cell Line,relative viability
1,HCC-827,0.997
2,HOP-62,1.03
3,IA-LM,1.15
4,LC-2-ad,0.767
5,LCLC-97TM1,1.25
6,LCLC-103H,1.02
7,LK-2,1.32
8,LOU-NH91,0.946
9,LU99A,0.915
10,LXF-289,0.99
11,NCI-H441,0.944
12,NCI-H522,1.11
13,NCI-H1623,1.03
14,NCI-H1648,1.16
15,NCI-H2342,1.07
16,SW 900,1.07

# Compound: CN(C)C(=N)NC(=N)N [Metformin] + CS(=O)(=O)N1CCN(Cc2cc3nc(-c4cccc5[nH]ncc45)nc(N4CCOCC4)c3s2)CC1 [Pictilisib] (partner 1 µM)
# Assay: relative viability (nuclei count vs DMSO), 5 days (fraction); higher = more cells survive
# Settings: first compound 10 µM
# Outline: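 Relative viability is defined as nuclei in treated wells over nuclei in vehicle wells. Duplicate plates were run and medians reported. Lung cancer cell lines in 1536-well plates were dosed by pin tool one day after seeding, with one drug or with a fixed anchor-drug dose plus five library-drug doses (not always all listed) in √10 steps, and nuclei were counted after 5 days.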
row,Cell Line,relative viability
1,A549,0.428
2,A-427,0.79
3,BEN,0.831
4,CAL-12T,0.423
5,COR-L23,0.756
6,COR-L 105,0.401
7,Calu-6,0.733
8,ChaGo-K-1,0.824
9,EBC-1,0.508
10,EKVX,0.404
11,EMC-BAC-2,0.475
12,EPLC-272H,0.362
13,H3255,0.388
14,HARA,0.504
15,HCC-15,0.625
16,HCC-44,0.682
17,HCC-78,0.291
18,HCC-366,0.141
19,HOP-62,0.739
20,IA-LM,0.337
21,LCLC-97TM1,0.257
22,LCLC-103H,0.713
23,LK-2,0.707
24,LOU-NH91,0.555
25,LU99A,0.248
26,LXF-289,0.73
27,NCI-H441,0.527

# Same assay, conditions: first compound 31.62 µM
row,Cell Line,relative viability
1,201T,0.709
2,A549,0.517
3,A-427,0.896
4,ABC-1,0.76
5,BEN,0.754
6,CAL-12T,0.511
7,COR-L23,0.886
8,COR-L 105,0.488
9,Calu-6,0.886
10,ChaGo-K-1,1.12
11,EBC-1,0.444
12,EKVX,0.392
13,EMC-BAC-2,0.536
14,EPLC-272H,0.314
15,H3255,0.53
16,HARA,0.468
17,HCC-15,0.789
18,HCC-44,0.771
19,HCC-78,0.257
20,HCC-366,0.213
21,HCC-827,0.914
22,HOP-62,0.656
23,IA-LM,0.462
24,LC-2-ad,0.471
25,LCLC-97TM1,0.196
26,LCLC-103H,0.717
27,LK-2,0.757
28,LOU-NH91,0.469
29,LU99A,0.295
30,LXF-289,0.685

# Same assay, conditions: first compound 100 µM
row,Cell Line,relative viability
1,201T,0.701
2,A549,0.553
3,A-427,0.713
4,ABC-1,0.787
5,BEN,0.626
6,CAL-12T,0.527
7,COR-L23,0.754
8,COR-L 105,0.478
9,Calu-6,0.769
10,ChaGo-K-1,0.686
11,EBC-1,0.467
12,EKVX,0.453
13,EMC-BAC-2,0.528
14,EPLC-272H,0.364
15,H3255,0.4
16,HARA,0.497

row,Cell Line,relative viability
1,HCC-15,0.746
2,HCC-44,0.734
3,HCC-78,0.201
4,HCC-366,0.138
5,HCC-827,1.13
6,HOP-62,0.786
7,IA-LM,0.41
8,LC-2-ad,0.334
9,LCLC-97TM1,0.255
10,LCLC-103H,0.711
11,LK-2,0.811
12,LOU-NH91,0.53
13,LU99A,0.247
14,LXF-289,0.746
15,NCI-H441,0.499

# Same assay, conditions: first compound 316.23 µM
row,Cell Line,relative viability
1,201T,0.688
2,A549,0.464
3,A-427,0.68
4,ABC-1,0.643
5,BEN,0.625
6,CAL-12T,0.415
7,COR-L23,0.707
8,COR-L 105,0.463
9,Calu-6,0.531
10,ChaGo-K-1,0.801
11,EBC-1,0.306
12,EKVX,0.414
13,EMC-BAC-2,0.523
14,EPLC-272H,0.305
15,H3255,0.46
16,HARA,0.496

row,Cell Line,relative viability
1,HCC-15,0.75
2,HCC-44,0.63
3,HCC-78,0.159
4,HCC-366,0.115
5,HCC-827,0.996
6,HOP-62,0.531
7,IA-LM,0.38
8,LC-2-ad,0.426
9,LCLC-97TM1,0.234
10,LCLC-103H,0.669
11,LK-2,0.61
12,LOU-NH91,0.496
13,LU99A,0.27
14,LXF-289,0.661
15,NCI-H441,0.394

# Same assay, conditions: first compound 1000 µM
row,Cell Line,relative viability
1,201T,0.685
2,A549,0.0878
3,A-427,0.763
4,ABC-1,0.265
5,BEN,0.769
6,CAL-12T,0.518
7,COR-L23,0.759
8,COR-L 105,0.333
9,Calu-6,0.413
